Data from the CheMixHub ionic liquid set.
± gives the uncertainty stated by the source.

Assay: xn = mol fraction of the nth substance listed
[1] = 288.15 K, 101.3 kPa, x1 = 0.889

With C[N+](C)(C)CCC[n+]1ccccc1.N#C[N-]C#N.N#C[N-]C#N + CO the viscosity (293.15 K, 100 kPa, x1 = 0.3999) was 69.9 ± 7 mPa·s, the viscosity (293.15 K, 100 kPa, x1 = 0.8995) was 950 ± 130 mPa·s and the viscosity (303.15 K, 100 kPa, x1 = 0.5002) was 78.6 ± 7.9 mPa·s. It also gave a viscosity (303.15 K, 100 kPa, x1 = 0.7003) of 184 ± 20 mPa·s, a viscosity (313.15 K, 100 kPa, x1 = 0.0999) of 3.18 ± 0.32 mPa·s and a viscosity (313.15 K, 100 kPa, x1 = 0.3999) of 31.9 ± 3.2 mPa·s. The viscosity (313.15 K, 100 kPa, x1 = 0.5002) was 53.3 ± 5.3 mPa·s, the viscosity (313.15 K, 100 kPa, x1 = 0.7998) was 145 ± 15 mPa·s and the viscosity (313.15 K, 100 kPa, x1 = 1) was 386 ± 46 mPa·s. For the same molecule, the viscosity (323.15 K, 100 kPa, x1 = 0.3002) was 13.6 ± 1.4 mPa·s, the viscosity (323.15 K, 100 kPa, x1 = 0.3999) was 23.6 ± 2.4 mPa·s and the viscosity (323.15 K, 100 kPa, x1 = 0.5002) was 38.3 ± 3.8 mPa·s. It also gave a viscosity (323.15 K, 100 kPa, x1 = 0.6001) of 54.1 ± 5.4 mPa·s, a viscosity (333.15 K, 100 kPa, x1 = 0.0999) of 2.54 ± 0.26 mPa·s and a viscosity (333.15 K, 100 kPa, x1 = 0.2001) of 6.12 ± 0.62 mPa·s. It also gave a viscosity (333.15 K, 100 kPa, x1 = 0.3999) of 18.5 ± 1.9 mPa·s and a viscosity (333.15 K, 100 kPa, x1 = 0.6001) of 38.5 ± 3.9 mPa·s.

Work on CC(=O)[O-].CCCCCCCCCCCCCC[P+](CCCCCC)(CCCCCC)CCCCCC + COCCOCCOCCOCCOC yielded a viscosity (278.15 K, 100 kPa, x2 = 0.207) of 651 ± 35 mPa·s, a viscosity (278.15 K, 100 kPa, x2 = 0.499) of 176 ± 5 mPa·s and a viscosity (283.15 K, 100 kPa, x2 = 0.207) of 462 ± 22 mPa·s. It also gave a viscosity (288.15 K, 100 kPa, x2 = 0.103) of 549 ± 28 mPa·s, a viscosity (288.15 K, 100 kPa, x2 = 0.4) of 145 ± 4 mPa·s and a viscosity (298.15 K, 100 kPa, x2 = 0.103) of 287 ± 11 mPa·s. It also gave a viscosity (298.15 K, 100 kPa, x2 = 0.4) of 88 ± 1 mPa·s and a viscosity (313.15 K, 100 kPa, x2 = 0.103) of 130 ± 3 mPa·s.

NC(=O)C(F)(F)F + C[P+](c1ccccc1)(c1ccccc1)c1ccccc1.[Br-] gave an electrical conductivity [1] of 0.035 ± 0.014 S/m and a viscosity [1] of 410 mPa·s.

In the case of CCCCCC[n+]1ccn(C)c1.[Cl-] + O, the viscosity (278.15 K, 100 kPa, x1 = 8.613e-05) is reported as 1.531 ± 0.011 mPa·s, the viscosity (278.15 K, 100 kPa, x1 = 0.0001839) is reported as 1.539 ± 0.011 mPa·s and the viscosity (278.15 K, 100 kPa, x1 = 0.0003576) is reported as 1.551 ± 0.012 mPa·s. For the same molecule, the viscosity (278.15 K, 100 kPa, x1 = 0.0005405) was 1.562 ± 0.012 mPa·s, the viscosity (278.15 K, 100 kPa, x1 = 0.000744) was 1.573 ± 0.012 mPa·s and the viscosity (278.15 K, 100 kPa, x1 = 0.0009399) was 1.585 ± 0.012 mPa·s. The viscosity (278.15 K, 100 kPa, x1 = 0.001103) was 1.596 ± 0.012 mPa·s, the viscosity (278.15 K, 100 kPa, x1 = 0.001379) was 1.613 ± 0.012 mPa·s and the viscosity (278.15 K, 100 kPa, x1 = 0.001677) was 1.641 ± 0.012 mPa·s. It also gave a viscosity (283.15 K, 100 kPa, x1 = 8.613e-05) of 1.314 ± 0.01 mPa·s, a viscosity (283.15 K, 100 kPa, x1 = 0.0001839) of 1.32 ± 0.01 mPa·s and a viscosity (283.15 K, 100 kPa, x1 = 0.0003576) of 1.329 ± 0.01 mPa·s. It also gave a viscosity (283.15 K, 100 kPa, x1 = 0.0005405) of 1.337 ± 0.01 mPa·s, a viscosity (283.15 K, 100 kPa, x1 = 0.000744) of 1.348 ± 0.01 mPa·s and a viscosity (283.15 K, 100 kPa, x1 = 0.0009399) of 1.358 ± 0.01 mPa·s. For the same molecule, the viscosity (283.15 K, 100 kPa, x1 = 0.001103) was 1.369 ± 0.01 mPa·s, the viscosity (283.15 K, 100 kPa, x1 = 0.001379) was 1.381 ± 0.01 mPa·s and the viscosity (283.15 K, 100 kPa, x1 = 0.001677) was 1.401 ± 0.011 mPa·s. It also gave a viscosity (288.15 K, 100 kPa, x1 = 8.613e-05) of 1.145 ± 0.009 mPa·s, a viscosity (288.15 K, 100 kPa, x1 = 0.0001839) of 1.15 ± 0.009 mPa·s and a viscosity (288.15 K, 100 kPa, x1 = 0.0003576) of 1.158 ± 0.009 mPa·s. The viscosity (288.15 K, 100 kPa, x1 = 0.0005405) was 1.166 ± 0.009 mPa·s, the viscosity (288.15 K, 100 kPa, x1 = 0.000744) was 1.174 ± 0.009 mPa·s and the viscosity (288.15 K, 100 kPa, x1 = 0.0009399) was 1.181 ± 0.009 mPa·s. The viscosity (288.15 K, 100 kPa, x1 = 0.001103) was 1.188 ± 0.009 mPa·s, the viscosity (288.15 K, 100 kPa, x1 = 0.001379) was 1.2 ± 0.009 mPa·s and the viscosity (288.15 K, 100 kPa, x1 = 0.001677) was 1.219 ± 0.009 mPa·s. The viscosity (293.15 K, 100 kPa, x1 = 8.613e-05) was 1.008 ± 0.008 mPa·s, the viscosity (293.15 K, 100 kPa, x1 = 0.0001839) was 1.013 ± 0.008 mPa·s and the viscosity (293.15 K, 100 kPa, x1 = 0.0003576) was 1.019 ± 0.008 mPa·s. For the same molecule, the viscosity (293.15 K, 100 kPa, x1 = 0.0005405) was 1.025 ± 0.008 mPa·s, the viscosity (293.15 K, 100 kPa, x1 = 0.000744) was 1.033 ± 0.008 mPa·s and the viscosity (293.15 K, 100 kPa, x1 = 0.0009399) was 1.039 ± 0.008 mPa·s. It also gave a viscosity (293.15 K, 100 kPa, x1 = 0.001103) of 1.044 ± 0.008 mPa·s, a viscosity (293.15 K, 100 kPa, x1 = 0.001379) of 1.054 ± 0.008 mPa·s and a viscosity (293.15 K, 100 kPa, x1 = 0.001677) of 1.069 ± 0.008 mPa·s. It also gave a viscosity (298.15 K, 100 kPa, x1 = 0.0001839) of 0.899 ± 0.007 mPa·s, a viscosity (298.15 K, 100 kPa, x1 = 0.0003576) of 0.905 ± 0.007 mPa·s and a viscosity (298.15 K, 100 kPa, x1 = 0.0005405) of 0.911 ± 0.007 mPa·s. The viscosity (298.15 K, 100 kPa, x1 = 0.000744) was 0.917 ± 0.007 mPa·s, the viscosity (298.15 K, 100 kPa, x1 = 0.0009399) was 0.922 ± 0.007 mPa·s and the viscosity (298.15 K, 100 kPa, x1 = 0.001103) was 0.928 ± 0.007 mPa·s. It also gave a viscosity (298.15 K, 100 kPa, x1 = 0.001379) of 0.936 ± 0.007 mPa·s, a viscosity (298.15 K, 100 kPa, x1 = 0.001677) of 0.949 ± 0.007 mPa·s and an electrical conductivity (298.15 K, 101.3 kPa, x1 = 4.23e-06) of 0.00276 ± 3e-05 S/m. It also gave an electrical conductivity (298.15 K, 101.3 kPa, x1 = 7.11e-06) of 0.00451 ± 5e-05 S/m, an electrical conductivity (298.15 K, 101.3 kPa, x1 = 1.01e-05) of 0.00631 ± 6e-05 S/m and an electrical conductivity (298.15 K, 101.3 kPa, x1 = 1.293e-05) of 0.008 ± 8e-05 S/m. It also gave an electrical conductivity (298.15 K, 101.3 kPa, x1 = 1.551e-05) of 0.00953 ± 0.0001 S/m, an electrical conductivity (298.15 K, 101.3 kPa, x1 = 1.836e-05) of 0.01121 ± 0.00011 S/m and an electrical conductivity (298.15 K, 101.3 kPa, x1 = 2.116e-05) of 0.0129 ± 0.00013 S/m. For the same molecule, the electrical conductivity (298.15 K, 101.3 kPa, x1 = 2.393e-05) was 0.0145 ± 0.00015 S/m, the electrical conductivity (298.15 K, 101.3 kPa, x1 = 2.652e-05) was 0.016 ± 0.00016 S/m and the electrical conductivity (298.15 K, 101.3 kPa, x1 = 2.919e-05) was 0.0175 ± 0.00018 S/m. The viscosity (303.15 K, 100 kPa, x1 = 8.613e-05) was 0.802 ± 0.006 mPa·s, the viscosity (303.15 K, 100 kPa, x1 = 0.0001839) was 0.805 ± 0.006 mPa·s and the viscosity (303.15 K, 100 kPa, x1 = 0.0003576) was 0.81 ± 0.006 mPa·s. It also gave a viscosity (303.15 K, 100 kPa, x1 = 0.0005405) of 0.815 ± 0.006 mPa·s, a viscosity (303.15 K, 100 kPa, x1 = 0.000744) of 0.82 ± 0.006 mPa·s and a viscosity (303.15 K, 100 kPa, x1 = 0.0009399) of 0.825 ± 0.006 mPa·s. It also gave a viscosity (303.15 K, 100 kPa, x1 = 0.001103) of 0.829 ± 0.006 mPa·s, a viscosity (303.15 K, 100 kPa, x1 = 0.001379) of 0.836 ± 0.006 mPa·s and a viscosity (303.15 K, 100 kPa, x1 = 0.001677) of 0.847 ± 0.007 mPa·s. It also gave a viscosity (308.15 K, 100 kPa, x1 = 8.613e-05) of 0.723 ± 0.006 mPa·s, a viscosity (308.15 K, 100 kPa, x1 = 0.0001839) of 0.726 ± 0.006 mPa·s and a viscosity (308.15 K, 100 kPa, x1 = 0.0003576) of 0.73 ± 0.006 mPa·s. For the same molecule, the viscosity (308.15 K, 100 kPa, x1 = 0.0005405) was 0.734 ± 0.006 mPa·s, the viscosity (308.15 K, 100 kPa, x1 = 0.000744) was 0.739 ± 0.006 mPa·s and the viscosity (308.15 K, 100 kPa, x1 = 0.0009399) was 0.743 ± 0.006 mPa·s. For the same molecule, the viscosity (308.15 K, 100 kPa, x1 = 0.001103) was 0.747 ± 0.006 mPa·s, the viscosity (308.15 K, 100 kPa, x1 = 0.001379) was 0.753 ± 0.006 mPa·s and the viscosity (308.15 K, 100 kPa, x1 = 0.001677) was 0.762 ± 0.006 mPa·s. It also gave a viscosity (313.15 K, 100 kPa, x1 = 8.613e-05) of 0.656 ± 0.005 mPa·s, a viscosity (313.15 K, 100 kPa, x1 = 0.0001839) of 0.659 ± 0.005 mPa·s and a viscosity (313.15 K, 100 kPa, x1 = 0.0003576) of 0.662 ± 0.005 mPa·s. It also gave a viscosity (313.15 K, 100 kPa, x1 = 0.0005405) of 0.666 ± 0.005 mPa·s, a viscosity (313.15 K, 100 kPa, x1 = 0.000744) of 0.67 ± 0.005 mPa·s and a viscosity (313.15 K, 100 kPa, x1 = 0.0009399) of 0.673 ± 0.005 mPa·s. It also gave a viscosity (313.15 K, 100 kPa, x1 = 0.001103) of 0.677 ± 0.005 mPa·s, a viscosity (313.15 K, 100 kPa, x1 = 0.001379) of 0.683 ± 0.005 mPa·s and a viscosity (313.15 K, 100 kPa, x1 = 0.001677) of 0.691 ± 0.005 mPa·s.
